Assay results taken from US4170647A, “Method for the control of Arizona hinshawii in poultry with an alkylated BM123γ-type antibiotic” (American Cyanamid Company, priority 1978, dated 1979).

Tested on: Arizona hinshawii
Assay: In vitro activity against six strains of Arizona hinshawii (minimum inhibitory concentration, broth dilution)
Assay type: cell-based
Conditions: trypticase soy broth, 24 hours at 37° C.
Description: Serial, two-fold dilutions of drugs are prepared in trypticase soy broth (TSB). To each tube containing 5 ml of broth is added 0.1 ml of a 10^-3 dilution of bacterial inoculum (six strains of Arizona hinshawii, originally isolated from clinical cases of Arizonosis of turkeys), adjusted prior to dilution to 44% transmission at 645 mμ. An inoculated broth, containing no drug is included as growth control for each strain tested. The minimum inhibitory conentration (MIC) is read as the highest dilution of drug showing no visble growth after 24 hours incubation at 37° C.

Measured: Minimum Inhibitory Concentration

Gentamicin
2 µg/mL: Isolate Number 1 | Isolate Number 2 | Isolate Number 3 | Isolate Number 4 | Isolate Number 5 | Isolate Number 6
